According to patent publication US20140275090A1, “BILE ACID RECYCLING INHIBITORS FOR TREATMENT OF PRIMARY SCLEROSING CHOLANGITIS AND INFLAMMATORY BOWEL DISEASE” (Lumena Pharmaceuticals, Inc., priority 2013, published 2014):

How the values were obtained:
serum cholesterol = assay: Serum total, HDL and non-HDL cholesterol, hamsters dosed 28 days; type: in vivo, golden Syrian hamster; settings: hamster
Text: Male golden Syrian hamsters (126-147 gm) were obtained from Charles Rivers Laboratories and were single housed in a constant temperature environment with alternating 12-hour light and dark cycles. Hamsters were fed Teklad 7001 rodent meal chow at libitum for two weeks before the experimental studies began and switched to Teklad 7001 rodent meal chow supplemented with 0.24% cholesterol on day one of the 28-day experiment. Water was continuously available to the animals. Hamsters were assigned to groups in a manner that normalized each group by pretreatment body weights. SD-5613 was dissolved in an aqueous solution of 0.2% (w/v) Tween 80 and administered Q.D. by intragastric gavage between 9 a.m. and 10 a.m. each morning using a syringe fitted with a flexible feeding tube. Blood samples were collected after 14- and 28-day treatment periods by orbital sinus and cardiac puncture, respectively. Hamsters were anesthetized but not fasted prior to blood collections. Fecal samples were collected during a 48-hour period at the end of days 14 and 28 (i.e. days 13-14 and 27-28). Hamsters were sacrificed using carbon dioxide asphyxiation to obtain the following tissue samples: liver, kidneys, colon and cecum.
Blood was collected at 14 and 28 days from non-fasted hamsters and put into serum separator tubes. The blood cells were separated from the serum by centrifugation at 2000×g for 20 minutes and the serum decanted. Total cholesterol was measured using a Cobas Mira Classic clinical chemistry analyzer (Roche Diagnostic Systems, Indianapolis, Ind.). This analyzer used the cholesterol oxidase reaction to produce hydrogen peroxide which was measured colorimetrically. The cholesterol reagent (Roche Diagnostic Systems) was reconstituted according to package insert. The reagent was calibrated using Roche Calibrator Serum. Commercial bi-level quality control material was analyzed to verify calibration and reagent performance (QC1, QC2-Bio-Rad Laboratories, Irvine, Calif.). The cholesterol content of each sample was measured at 500 nm and 37° C. in a calibrated analyzer by mixing 3 μl of sample with 150 μl cholesterol reagent and 40 μl water.
The Unimate HDL Direct Cholesterol assay (DHDL, Roche Diagnostics) was based on the […] of synthetic polymers and polyanions to the surface of lipoproteins. The combined action of polymers, polyanions and detergent solubilizes cholesterol from HDL, but transforms LDL, VLDL, and chylomicrons into detergent-resistant forms. Solubilized cholesterol was oxidized by the sequential enzymatic action of cholesterol esterase and cholesterol oxidase. The H2O2 produced in this reaction was reacted with chromogens to form a colored dye. The increase in absorbance at 550 nm was directly proportional to the HDL cholesterol concentration of the sample. The test was performed using a Cobas Mira Classic clinical chemistry analyzer (Roche Diagnostic Systems). The DHDL reagent (Roche Diagnostic Systems) was reconstituted according to the package insert. The reagent was calibrated using Roche HDL Direct Calibrator. Commercial bi-level quality control material was analyzed to verify calibration and reagent performance (Liquichek Lipids Control, Level 1 & 2, Bio-Rad Laboratories, Irvine, Calif.). A 2.4 μl aliquot of serum was analyzed in the presence of 240 μl of Reagent 1, 80 μl of Reagent 2 and 5 μl of water at 37° C. and 550 nm wavelength. Triglycerides were hydrolyzed by lipoprotein lipase to glycerol and fatty acids. Glycerol was then phosphorylated to glycerol-3-phosphate by adenosine 5-triphosphate (ATP) in a reaction catalyzed by glycerol kinase (GK). The oxidation of glycerol-3-phosphate was catalyzed by glycerolphosphate oxidase (GPO) to form dihydroxyacetone phosphate and hydrogen peroxide. The hydrogen peroxide reacted with 4-cholorophenol and 4-aminophenazone in the presence of peroxidase to form a quinoneimine complex, which was read at 490-550 nm. […]

[1] = Toxicokinetics of LUM001 free form, 13-week oral gavage toxicity study in rats; type: in vivo; settings: plasma; rat, after IV administration of 3 mg/kg; read-out: AUC(0-24 h)

## CCCCC1(CCCC)CS(=O)(=O)c2ccc(N(C)C)cc2[C@@H](c2ccc(OCc3ccc(C[N+]45CCN(CC4)CC5)cc3)cc2)[C@H]1O [LUM001]
Serum cholesterol; 5 mg/kg/day
  HDL-cholesterol: 127 ± 10 mg/dL
  HDL-cholesterol, % change from vehicle group: (−22) %
  Non-HDL-cholesterol: 99 ± 9 mg/dL
  Non-HDL-cholesterol, % change from vehicle group: (−37) %
  Serum Total Cholesterol: 225 ± 16 mg/dL
  Serum Total Cholesterol, % change from vehicle group: (−29) %
Serum cholesterol; 15 mg/kg/day
  HDL-cholesterol: 115 ± 7 mg/dL
  HDL-cholesterol, % change from vehicle group: (−29) %
  Non-HDL-cholesterol: 86 ± 8 mg/dL
  Non-HDL-cholesterol, % change from vehicle group: (−45) %
  Serum Total Cholesterol: 201 ± 14 mg/dL
  Serum Total Cholesterol, % change from vehicle group: (−37) %
Serum cholesterol; 50 mg/kg/day
  HDL-cholesterol: 102 ± 4 mg/dL
  HDL-cholesterol, % change from vehicle group: (−37) %
  Non-HDL-cholesterol: 76 ± 4 mg/dL
  Non-HDL-cholesterol, % change from vehicle group: (−52) %
  Serum Total Cholesterol: 178 ± 6 mg/dL
  Serum Total Cholesterol, % change from vehicle group: (−44) %
[1]
  AUC(0-t): 4320 ng·h/mL
